Measured values reported in paper PMC12441774, “Proteolytic stabilization of a spider venom peptide results in an orally active bioinsecticide” (Pest Management Science, 2025).
Bridges are numbered along the chain shown (N, C = ends). Where no end group is shown, it is not given here.

What was measured:
[1] = Protease stability, commercial trypsin digestion; format: in vitro ADME, bovine; details: bovine trypsin 1 mg mL^−1 in 50 mM Tris–HCl pH 8.8, 100 mM NaCl; 5 μL added to 200 μL of 10.7 mg mL^−1 peptide; room temperature; HPLC; read-out: Degradation half life, Trypsin
Description: (§1) For commercial enzyme digestion studies, bovine trypsin (Sigma‐Aldrich, St. Louis, MO) was prepared at a concentration of 1 mg mL^−1 in 50 mM Tris–HCl pH 8.8, 100 mM NaCl. Bovine chymotrypsin (Sigma‐Aldrich) was prepared at a concentration of 1 mg ml^−1 in 50 mM MES pH 6.0, 100 mM NaCl. For each digestion condition, 5 μL of trypsin or chymotrypsin solution were added to 200 μL of 10.7 mg mL^−1 peptide and incubated at room temperature. Samples were taken at defined timepoints, sterile filtered, and analyzed immediately by HPLC.

[2] = molecular target: T1, bovine trypsin (Bos taurus, UniProt P00760); experiment: Protease stability, commercial trypsin digestion; format: in vitro ADME; details: for Degradation half time ratio to Ta1b, Trypsin: ratio of half lives with bovine trypsin
T1 construct: purchased Sigma-Aldrich
T1 sequence (P00760 24-246): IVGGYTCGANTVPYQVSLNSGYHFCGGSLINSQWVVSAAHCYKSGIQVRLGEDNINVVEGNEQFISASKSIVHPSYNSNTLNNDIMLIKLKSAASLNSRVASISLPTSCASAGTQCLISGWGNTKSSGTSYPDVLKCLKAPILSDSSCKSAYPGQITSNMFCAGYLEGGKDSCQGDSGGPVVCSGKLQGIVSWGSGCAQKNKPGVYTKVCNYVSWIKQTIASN
Description: as §1

[3] = Gut enzyme digestion, M. sexta gut extract; format: in vitro ADME, Manduca sexta; details: for half-life: M. sexta fifth instar gut extract diluted 10× in 30 mM Tris–HCl pH 8.8, 0.5–1 mg mL^−1 peptide, HPLC, single exponential decay fit, read-out: Degradation half life, Gut extract; for Degradation half time ratio to Ta1b, Gut extract: ratio of half lives in M. sexta gut extract; for Fold stability improvement over Ta1b: gut extract stability testing, limit of testing 50‐fold
Description: (§2) Larvae of H. zea, Spodoptera frugiperda Smith and Abbot, 1797, and Trichoplusia ni Hubner, 1802 were purchased from Benzon Research and reared to fifth instar on general purpose lepidopteran diet. Manduca sexta L. were purchased from Carolina Biological Supply (Burlington, NC) and reared to fifth instar on the supplied diet. Larvae were anesthetized on ice for 30 min, pinned on a dissection plate, and opened laterally with microdissection scissors. The foregut, midgut and hindgut were excised and washed using sterile water to remove any excess hemolymph and then transferred into a chilled 2‐mL microcentrifuge tube. The extracts were spun in a microcentrifuge at 10000 g to pellet the solids. The liquid fractions were carefully removed, sterile filtered, and stored at −80°C for future use.
(§3) For gut enzyme digestion studies, gut extract was diluted 10× with the dilution buffer (30 mM Tris–HCl, pH 8.8) and 0.5–1 mg mL^−1 of Ta1b. Samples were taken from the digestion mixture at defined timepoints and mixed with a 1:6 ratio of stop buffer (Tris–HCl pH 1–2) to halt further digest of the peptide. Samples were sterile filtered and analyzed by HPLC to determine peptide integrity and concentration.

[4] = test system: Myzus persicae; experiment: Greenhouse trial on green peach aphids on cucumbers; format: in vivo; details: Admire Pro 0.088 L product ha^−1; four applications
Description: Contact activity of Ta1b‐QA on green peach aphids (Myzus persicae (Sulzer, 1776)) on cucumbers in the greenhouse was performed in cooperation with A.C.D.S Research in North Rose, NY. The study was a randomized complete block design (RCBD), with treatments replicated six times, plots consisting of three pots each containing two to three plants. […] Treatments were applied four times, at 6–8‐day intervals, with a backpack CO2 sprayer in a spray volume of 374 L ha^−1. The number of aphids per plant was counted at regular intervals (0, 4, 11, 17, 23 and 29 d after first application). Cumulative insect‐days (defined as the area under the insect population curve as a measure of pest pressure) were calculated based on those six rating dates, then converted to % control relative to the untreated check using Abbott's formula. One replicate was removed due to a lack of pest pressure in the untreated check. Data were analyzed by one‐way ANOVA followed by a Tukey HSD LSM test with significance set at P < 0.05 (GraphPad Prism).

[5] = Gut enzyme digestion, S. frugiperda gut extract; format: in vitro ADME, Spodoptera frugiperda; details: extract diluted ten-fold, single exponential decay fit, HPLC
Description: as §2, §3

[6] = Gut enzyme digestion, stated jointly for three lepidopteran gut extracts; format: in vitro ADME, H. zea, S. frugiperda, T. ni; details: 10‐fold diluted gut extract, single exponential decay, followed up to 21 h
Description: as §2, §3

[7] = Gut enzyme digestion, T. ni gut extract; format: in vitro ADME, Trichoplusia ni; details: extract diluted ten-fold, single exponential decay fit, HPLC
Description: as §2, §3

[8] = Gut enzyme digestion, H. zea gut extract; format: in vitro ADME, Helicoverpa zea; details: extract diluted ten-fold, single exponential decay fit, HPLC
Description: as §2, §3

[9] = test system: Musca domestica; experiment: Insecticidal activity by injection into adult house flies; format: in vivo; details: adult house flies 12–18 mg, 0.5 μL into dorsal thorax, mortality 24 h post‐injection, 10 flies per treatment, at least triplicate, four‐parameter sigmoidal fit
Description: Adult house flies (Musca domestica L.) were immobilized with CO2 gas and those with an average weight of 12–18 mg were selected for injection. Purified solutions of Ta1b and variants were diluted in water and injected into the dorsal thorax with a 1‐cc syringe and 30‐gauge needle using a hand microapplicator (Burkard, Rickmansworth, England). Each adult was injected with 0.5 μL of solution with 10 flies per treatment in at least triplicate. Water was used as a negative control. Flies were placed into a container with moist filter paper and scored for mortality 24 h post‐injection. Ten non‐injected flies were placed in a container to assess CO2 mortality. Response curves were fitted with a four‐parameter sigmoidal function (GraphPad Prism, Boston, MA) to determine LD50 values.
(§4) To compare the potency of Ta1b, we also injected the following active ingredients into M. domestica and H. zea: GS‐ω/κ (Spear, Vestaron), spinosad (Monterey Garden Insect Spray, Monterey), thiamethoxam (Optigard® Flex, Syngenta), and chlorantraniliprole (ALTACOR®, FMC).

[10] = test system: Helicoverpa zea; experiment: Insecticidal activity by injection into fourth instar larvae; format: in vivo; details: fourth instar larvae, 1 μL into penultimate proleg, mortality 24 h after injection, eight larvae per treatment, at least triplicate
Description: Helicoverpa zea (Boddie, 1850) larvae were reared from eggs (Benzon, Carlisle, PA) to fourth instar on general purpose lepidopteran diet (F9772, Frontier Agricultural Sciences, Newark, DE). Pre‐weighed larvae immobilized on ice were injected into their penultimate proleg as described for M. domestica with 1 μL solution and eight larvae per treatment in at least triplicate. After injection, larvae were placed in a well of a 32‐well tray filled with 5 mL lepidopteran diet. The trays were then placed in an incubator at 28° C with 16:8 h light: dark cycle and evaluated 24 h after injection for mortality.
as §4

[11] = test system: Pieris brassicae; experiment: Field trial on cabbage caterpillar on cabbage; format: in vivo; details: spinosad (Laser, 96 g product ha^−1) or Btk alone; two applications 7 days apart; four replicate plots
Description: A dose–response of U1‐AGTX‐Ta1b‐QA (Ta1b‐QA) combined with Bacillus thuringiensis subsp. kurstaki (Btk; DiPel DF®, Valent) was performed by Agricola 2000 in a randomized complete block design (RCBD) on cabbage caterpillar (Pieris brassicae L.) on cabbage in Palagiano, Italy with four replicate plots of 1 × 15 m in open‐field containing 25 plants each. Treatments included an untreated check, three rates (22, 34, 45 g AI ha^−1) of an 8.5% w/w spray‐dried sample of Ta1b‐QA together with Btk (DiPel DF®, Valent, 0.5 kg product ha^−1), and the reference standard spinosad (Laser®, Corteva, 96 g product ha^−1). Treatments were applied two times, 7 days apart, with a backpack CO2 sprayer in a spray volume of 800 L ha^−1. […] Data were analyzed by one‐way ANOVA followed by a Tukey HSD LSM test with significance set at P < 0.05 (GraphPad Prism).

[12] = test system: H. zea neonates; experiment: Insecticidal activity by foliar spray (lettuce leaf disk feeding); format: in vivo, Helicoverpa zea
Description: Organic romaine lettuce was cut into 30‐mm diameter disks and sterilized with a 140‐ppm bleach solution followed by a triple rinse in water. The lettuce disks were then sprayed on either side using a Potter Tower Sprayer (Burkard, Rickmansworth, England) with insecticidal solutions, allowing them to dry between sprays. Once fully sprayed and dried, disks were placed into an arena, which was a 32‐well rearing tray containing 5 mL of 1% w/v agar. One leaf disk was placed in each well and a single neonate H. zea was applied to each of the 12 leaf discs per treatment with four experimental replicates per treatment. The trays were then placed in a 28° C incubator with a 16:8 h light: dark cycle. Mortality was evaluated 4 days after application.

EPDEICRARMTNAEFTYKSNVCNNCGDQVAACEAECFRNDVYTACHEAQKG (disulfide 6-36, 22-32, 25-45) [Mutant K13A]
half-life at 10.4 mg mL^-1 [1]: 4.9 h | Degradation half time ratio to Ta1b, Trypsin [2]: 1.0

EPDEICRARMTNKEFTYKSNVCNNCGDQVAACEAECFANDVYTACHEAQKG (disulfide 6-36, 22-32, 25-45) [Mutant R38A]
half-life [3]: 0.215 h | Degradation half time ratio to Ta1b, Gut extract [3]: 9.2 | half-life at 10.4 mg mL^-1 [1]: 31 h | Degradation half time ratio to Ta1b, Trypsin [2]: 6.5

O=[N+]([O-])NC1=NCCN1Cc1ccc(Cl)nc1 [imidacloprid]
Mean % control of cumulative insect‐days relative to the untreated check, reference standard [4]: 90.4%

EPDEICRSRMTNKEFTYKSNVCNNCGDQVAACEAECFRNDVYTACHEAQKG (disulfide 6-36, 22-32, 25-45) [Mutant A8S]
Fold stability improvement over Ta1b [3]: 12.1

EPDEICRARMPNKEFTYKSNVCNNCGDQVAACEAECFRNDVYTACHEAQKG (disulfide 6-36, 22-32, 25-45) [Mutant T11P]
Fold stability improvement over Ta1b [3]: >50

EPDEICRAQMTNKEFTYKSNVCNNCGDQVAACEAECFRNDVYTACHEAQKG (disulfide 6-36, 22-32, 25-45) [Mutant R9Q]
Degradation half-life in S. frugiperda gut extract [5]: could not be fit to an exponential decay | Fold stability improvement over Ta1b [3]: >50 | Degradation half‐lives in gut extracts from H. zea, S. frugiperda, and T. ni [6]: too little degradation to calculate half‐lives even after 21 h | Degradation half-life in T. ni gut extract [7]: could not be fit to an exponential decay | Degradation half-life in H. zea gut extract [8]: could not be fit to an exponential decay

CN1COCN(Cc2cnc(Cl)s2)/C1=N\[N+](=O)[O-] [Thiamethoxam, thiamethoxam]
Insecticidal LD50, injection, M. domestica (95% CI) [9]: 23.2 (18.1–29.6) nmol g^−1 | Insecticidal LD50, injection, H. zea (95% CI) [10]: 31.9 (20.2–52.1) nmol g^−1

EPDEICRANMTNKEFTYKSNVCNNCGDQVAACEAECFRNDVYTACHEAQKG (disulfide 6-36, 22-32, 25-45) [Mutant R9N]
Fold stability improvement over Ta1b [3]: >50

EPDEICRNRMTNKEFTYKSNVCNNCGDQVAACEAECFRNDVYTACHEAQKG (disulfide 6-36, 22-32, 25-45) [Mutant A8N]
Fold stability improvement over Ta1b [3]: 1.8

H-ICRAQMTNKEFTYKSNVCNNCGDQVAACEAECFRNDVYAACHEAQKG-OH (disulfide 2-32, 18-28, 21-41)
Reduction in melting temperature vs Ta1b-QA: 14.2 °C

spinosad
Mean % control of larvae relative to the untreated check, comparators [11]: 57.8% | Insecticidal LD50, injection, M. domestica (95% CI) [9]: 1.5 (0.9–2.4) nmol g^−1 | Insecticidal LD50, injection, H. zea (95% CI) [10]: 0.20 (0.14–0.31) nmol g^−1

EPDEICRARMTNKEFTYASNVCNNCGDQVAACEAECFRNDVYTACHEAQKG (disulfide 6-36, 22-32, 25-45) [Mutant K18A]
half-life at 10.4 mg mL^-1 [1]: 19.9 h | Degradation half time ratio to Ta1b, Trypsin [2]: 4.1

EPDEICAARMTNKEFTYKSNVCNNCGDQVAACEAECFRNDVYTACHEAQKG (disulfide 6-36, 22-32, 25-45) [Mutant R7A]
half-life at 10.4 mg mL^-1 [1]: 2.2 h | Degradation half time ratio to Ta1b, Trypsin [2]: 0.5

EPDEICRAAMTNKEFTYKSNVCNNCGDQVAACEAECFRNDVYTACHEAQKG (disulfide 6-36, 22-32, 25-45) [Mutant R9A]
half-life [3]: 4.97 h | Degradation half time ratio to Ta1b, Gut extract [3]: 213 | half-life at 10.4 mg mL^-1 [1]: > 100 h | Digestion by bovine trypsin (HPLC) ([2]; pH 8.8, room temperature, HPLC chromatogram): complete abrogation of Ta1b digestion | Degradation half time ratio to Ta1b, Trypsin [2]: >20

CNC(=O)c1cc(Cl)cc(C)c1NC(=O)c1cc(Br)nn1-c1ncccc1Cl [Chlorantraniliprole, chlorantraniliprole]
Insecticidal LD50, injection, M. domestica (95% CI) [9]: no activity | Insecticidal LD50, injection, H. zea (95% CI) [10]: 0.22 (0.15–0.37) nmol g^−1

GSQYCVPVDQPCSLNTQPCCDDATCTQERNENGHTVYYCRA (disulfide 5-20, 12-25, 19-39) [GS‐ω/κ, reference compound]
Insecticidal LD50, injection, M. domestica (95% CI) [9]: 0.19 (0.17–0.21) nmol g^−1 | Degradation when incubated with gut extract (HPLC) ([3]; M. sexta gut extract, HPLC peak): did not show any degradation | Insecticidal LD50, injection, H. zea (95% CI) [10]: 5.9 (4.9–6.9) nmol g^−1 | Day 4 mortality of H. zea on treated lettuce leaves, peptide alone ([12]; 100 μg cm^−2, neonates, compared to untreated): significant activity on its own | Day 4 mortality of H. zea on treated lettuce leaves, peptide in combination with Btk ([12]; 100 μg cm^−2 peptide with sublethal Btk 0.17 μg cm^−2, neonates): activity is increased

EPDEICRAHMTNKEFTYKSNVCNNCGDQVAACEAECFRNDVYTACHEAQKG (disulfide 6-36, 22-32, 25-45) [Mutant R9H]
Fold stability improvement over Ta1b [3]: 16.2
